Experimental data from patent US6953789B2, “Thiol compounds, their production and use” (Takeda Chemical Industries, Ltd., priority 1998, dated 2005).

target: T1, recombinant human MMP-13 (Homo sapiens, UniProt P45452); experiment: Assay of MMP-13 inhibiting activity (fluorogenic peptide substrate); type: biochemical; conditions: Table 3; 37° C., 2 hours
T1 construct: made in house; host or cells: baculovirus (pBlueBac4 / Bac-N-Blue; virus made in Sf9), expressed in High-Five insect cells; culture supernatant used
Source text: Based on the sequence described in the literature by Freije, J. M. et al (Journal of Biological Chemistry, 269: 16766-16773, 1994) and using a PCR method known per se, a human MMP-13 cDNA was obtained.
A pBlueBac4 (Invitrogen) and a Baculovirus vector Bac-N-Blue (Invitrogen) to each of which the human MMP-13 cDNA obtained above was integrated were co-transfected to an Sf9 cell to obtain a MMP-13-expressing recombinant virus.
The recombinant virus thus obtained was infected to a High-Five cell (Invitrogen), and the culture supernatant after three days was employed as an enzyme solution. Experiment 2 Assay of MMP-13 inhibiting activity
75 μl of a sample containing the recombinant human MMP-13, 200 mM sodium chloride, 20 mM calcium chloride, 0.1% Brij 35, 1 mM 2-mercaptoethanol, 200 mM tris-HCl buffer solution (pH7.5) and a test substance at various concentrations was treated with 25 μl of 40 μM MOCAc-Pro-Leu-Gly-Leu-A2pr(DNP)-Ala-Arg-NH2 (PEPTIDE KENKYUSHO) to initiate a reaction and kept at 37° C. for 2 hours, and then 100 μl of 500 mM sodium acetate-HCl buffer solution (pH3.0) was added to terminate the reaction.
The level of liberated MOCAc-Pro-Leu-Gly was determined using a fluorophotometer (MTP-32/F2: CORONA DENKI) at the excitation wavelength of 330 nm and the fluorescent wavelength of 405 nm. The fluorescent level of the reaction in the absence of a test substance was regarded as 100%, and the concentration of each test substance required for achieving 50% inhibition was indicated as IC50.

Going from NC(=O)S[C@@H]1CC(=O)N(Cc2ccc(Oc3ccccc3)cc2)C1 [Example 49, S-[(3R)-5-oxo-1-(4-phenoxybenzyl)pyrrolidinyl]thiocarbamate] to CNC(=O)S[C@@H]1CC(=O)N(Cc2ccc(Oc3ccccc3)cc2)C1 [Example 50, S-[(3R)-5-oxo-1-(4-phenoxybenzyl)pyrrolidinyl]methylthiocarbamate], the IC50 rises from 0.65 nM to 3 nM (4.6-fold). The first is the more potent here.

Compared with CCNC(=O)S[C@@H]1CC(=O)N(Cc2ccc(Oc3ccccc3)cc2)C1 [Example 51, S-[(3R)-5-oxo-1-(4-phenoxybenzyl)pyrrolidinyl]ethylthiocarbamate], CCCNC(=O)SC1CC(=O)N(Cc2ccc(Oc3ccccc3)cc2)C1 (stereo not drawn) [Example 52, S-[5-oxo-1-(4-phenoxybenzyl)-3-pyrrolidinyl]propylcarbamothioate] is 2-fold higher in IC50: 1 nM for the first, 2 nM for the second.

First: O=C(Nc1ccccc1)SC1CC(=O)N(Cc2ccc(Oc3ccccc3)cc2)C1 (stereo not drawn) [Example 53, S-[5-oxo-1-(4-phenoxybenzyl)-3-pyrrolidinyl]phenylcarbamothioate]
Second: O=C(NCc1ccccc1)S[C@@H]1CC(=O)N(Cc2ccc(Oc3ccccc3)cc2)C1 [Example 54, S-[(3R)-5-oxo-1-(4-phenoxybenzyl)pyrrolidinyl]benzylthiocarbamate]
The IC50 of the first is 1.5-fold lower: 1 nM for the first, 1.5 nM for the second.

Going from CC(=O)NC(=O)S[C@@H]1CC(=O)N(Cc2ccc(Oc3ccccc3)cc2)C1 [Example 55, S-[(3R)-5-oxo-1-(4-phenoxybenzyl)pyrrolidinyl]acetylthiocarbamate] to CCOC(=O)NC(=O)S[C@@H]1CC(=O)N(Cc2ccc(Oc3ccccc3)cc2)C1 [Example 57, O-Ethyl S-[(3R)-5-oxo-1-(4-phenoxybenzyl)pyrrolidinyl]imidothiodicarbonate], the IC50 falls from 1.3 nM to 0.81 nM (1.6-fold). The second is the more potent here.

O=C(NC(=O)c1ccccc1)S[C@@H]1CC(=O)N(Cc2ccc(Oc3ccccc3)cc2)C1 [Example 56, S-[(3R)-5-oxo-1-(4-phenoxybenzyl)pyrrolidinyl]benzoylthiocarbamate] and O=C(Cc1ccccc1)SC1CC(=O)N(Cc2ccc(Oc3ccccc3)cc2)C1 (stereo not drawn) [Example 68, S-[5-oxo-1-(4-phenoxybenzyl)-3-pyrrolidinyl]2-phenylethanethioate] are within 1.5-fold of each other in IC50: 1.4 nM for the first, 2 nM for the second.

CCOC(=O)CNC(=O)S[C@@H]1CC(=O)N(Cc2ccc(Oc3ccccc3)cc2)C1 [Example 58, Ethyl [({[(3R)-5-oxo-1-(4-phenoxybenzyl)pyrrolidinyl]sulfanyl}carbonyl)amino]acetate] and CCOC(=O)CCNC(=O)S[C@@H]1CC(=O)N(Cc2ccc(Oc3ccccc3)cc2)C1 [Example 60, Ethyl [({[(3R)-5-oxo-1-(4-phenoxybenzyl)pyrrolidinyl]sulfanyl}carbonyl)amino]propanoate] are within 1.5-fold of each other in IC50: 0.7 nM for the first, 0.9 nM for the second.

O=C(O)CNC(=O)S[C@@H]1CC(=O)N(Cc2ccc(Oc3ccccc3)cc2)C1 [Example 59, [({[(3R)-5-Oxo-1-(4-phenoxybenzyl)pyrrolidinyl]sulfanyl}carbonyl)amino]acetic acid] and O=C(O)CCNC(=O)S[C@@H]1CC(=O)N(Cc2ccc(Oc3ccccc3)cc2)C1 [Example 61, N-({[(3R)-5-oxo-1-(4-phenoxybenzyl)pyrrolidinyl]sulfanyl}carbonyl)-p-alanine] are within 1.5-fold of each other in IC50: 2 nM for the first, 1.8 nM for the second.

First: CN(C)C(=O)S[C@@H]1CC(=O)N(Cc2ccc(Oc3ccccc3)cc2)C1 [Example 62, S-[(3R)-5-oxo-1-(4-phenoxybenzyl)pyrrolidinyl]dimethylcarbamothioate]
Second: CC(C)C(=O)S[C@@H]1CC(=O)N(Cc2ccc(Oc3ccccc3)cc2)C1 [Example 67, S-[(3R)-5-oxo-1-(4-phenoxybenzyl)pyrrolidinyl]2-methylpropanethioate]
The IC50 of the first is 270-fold higher: 3000 nM for the first, 11 nM for the second. The second is the more potent here.

Going from O=C1C[C@@H](SC(=O)N2CCOCC2)CN1Cc1ccc(Oc2ccccc2)cc1 [Example 63, S-[(3R)-5-oxo-1-(4-phenoxybenzyl)pyrrolidinyl]4-morpholinecarbothioate] to CCC(=O)S[C@@H]1CC(=O)N(Cc2ccc(Oc3ccccc3)cc2)C1 [Example 64, S-[(3R)-5-oxo-1-(4-phenoxybenzyl)pyrrolidinyl]propanethioate], the IC50 falls from 2000 nM to 3.2 nM (620-fold).

CCCC(=O)S[C@@H]1CC(=O)N(Cc2ccc(Oc3ccccc3)cc2)C1 [Example 65, S-[(3R)-5-oxo-1-(4-phenoxybenzyl)pyrrolidinyl]butanethioate] and CCCCC(=O)SC1CC(=O)N(Cc2ccc(Oc3ccccc3)cc2)C1 (stereo not drawn) [Example 66, S-[5-oxo-1-(4-phenoxybenzyl)-3-pyrrolidinyl]pentanethioate] are within 1.5-fold of each other in IC50: 1.3 nM for the first, 1 nM for the second.

Going from O=C(Cc1ccc(Cl)cc1)SC1CC(=O)N(Cc2ccc(Oc3ccccc3)cc2)C1 (stereo not drawn) [Example 69, S-[5-oxo-1-(4-phenoxybenzyl)-3-pyrrolidinyl]-(4-chlorophenyl)ethanethioate] to CCOC(=O)CC(=O)S[C@@H]1CC(=O)N(Cc2ccc(Oc3ccccc3)cc2)C1 [Example 71, Ethyl 3-oxo-3-{[(3R)-5-oxo-1-(4-phenoxybenzyl)pyrrolidinyl]sulfanyl}propanoate], the IC50 falls from 20 nM to 0.89 nM (22-fold). The second is the more potent here.

O=C(SC1CC(=O)N(Cc2ccc(Oc3ccccc3)cc2)C1)C(c1ccccc1)c1ccccc1 (stereo not drawn) [Example 70, S-[5-oxo-1-(4-phenoxybenzyl)-3-pyrrolidinyl] 2,2-diphenylethanethioate] and CC(C)(C)OC(=O)CC(=O)S[C@@H]1CC(=O)N(Cc2ccc(Oc3ccccc3)cc2)C1 [Example 72, t-Butyl 3-oxo-3-{[(3R)-5-oxo-1-(4-phenoxybenzyl)pyrrolidinyl]sulfanyl}propanoate] are within 1.5-fold of each other in IC50: 2 nM for the first, 2.4 nM for the second.

same assay, conditions: Table 4; 37° C., 2 hours

Compared with CC(=O)SC1CC(=O)N(Cc2cccc(Oc3ccccc3)c2)C1 (stereo not drawn) [Example 40, 4-Acetylthio-1-(3-phenoxybenzyl)pyrrolidin-2-one], O=C1CC(S)CN1Cc1cccc(Oc2ccccc2)c1 (stereo not drawn) [Example 41, 4-Mercapto-1-(3-phenoxybenzyl)pyrrolidin-2-one] is 5-fold lower in IC50: 1000 nM for the first, 200 nM for the second.

same assay, conditions: Table 8; 37° C., 2 hours

Compared with O=C(SC1CCN(Cc2ccc(Oc3ccccc3)cc2)C1=O)c1ccccc1 (stereo not drawn) [Example 28, 3-Benzoylthio-1-(4-phenoxybenzyl)pyrrolidin-2-one], O=C1C(S)CCN1Cc1ccc(Oc2ccccc2)cc1 (stereo not drawn) [Example 29, 3-Mercapto-1-(4-phenoxybenzyl)pyrrolidin-2-one] is 2-fold higher in IC50: 1000 nM for the first, 2000 nM for the second. The first is the more potent here.

same assay, conditions: Table 9; 37° C., 2 hours

CC(=O)SC1CC(=O)N(Cc2ccc(Oc3ccc(F)cc3)cc2)C1 (stereo not drawn) [Example 30, 4-Acetylthio-1-(4-(4′-fluorophenoxy)benzyl)pyrrolidin-2-one] and CC(=O)SC1CC(=O)N(Cc2ccc(Oc3ccc(Cl)cc3)cc2)C1 (stereo not drawn) [Example 32, 4-Acetylthio-1-(4-(4′-chlorophenoxy)benzyl)pyrrolidin-2-one] are within 1.5-fold of each other in IC50: 10 nM for the first, 8 nM for the second.

First: O=C1CC(S)CN1Cc1ccc(Oc2ccc(F)cc2)cc1 (stereo not drawn) [Example 31, 4-Mercapto-1-(4-(4′-fluorophenoxy)benzyl)pyrrolidin-2-one]
Second: O=C1CC(S)CN1Cc1ccc(Oc2ccc(Cl)cc2)cc1 (stereo not drawn) [Example 33, 4-Mercaoto-1-(4-(4′-chlorophenoxy)benzyl)pyrrolidin-2-one]
The IC50 of the first is 1.7-fold lower: 3 nM for the first, 5 nM for the second. The first is the more potent here.

Going from CC(=O)SC1CC(=O)N(Cc2ccc(Oc3ccc(Br)cc3)cc2)C1 (stereo not drawn) [Example 34, 4-Acetylthio-1-(4-(4′-bromophenoxy)benzyl)pyrrolidin-2-one] to COc1ccc(Oc2ccc(CN3CC(SC(C)=O)CC3=O)cc2)cc1 (stereo not drawn) [Example 36, 4-Acetylthio-1-(4-(4′-methoxyphenoxy)benzyl)pyrrolidin-2-one], the IC50 rises from 10 nM to 50 nM (5-fold).

O=C1CC(S)CN1Cc1ccc(Oc2ccc(Br)cc2)cc1 (stereo not drawn) [Example 35, 4-Mercapto-1-(4-(4′-bromophenoxy)benzyl)pyrrolidin-2-one] and COc1ccc(Oc2ccc(CN3CC(S)CC3=O)cc2)cc1 (stereo not drawn) [Example 37, 4-Mercapto-1-(4-(4′-methoxyphenoxy)benzyl)pyrrolidin-2-one] are within 1.5-fold of each other in IC50: 6 nM for the first, 5 nM for the second.

same assay, conditions: Table 13; 37° C., 2 hours

Compared with CC(=O)SC1CCC(=O)N(Cc2ccc(Oc3ccccc3)cc2)C1=O (stereo not drawn) [Example 42, 3-Acetylthio-1-(4-phenoxybenzyl)piperidine-2,6-dione], CC(=O)SC1CCC(=O)N(Cc2ccc(Oc3ccc(Br)cc3)cc2)C1=O (stereo not drawn) [Example 43, 3-Acetylthio-1-[4-(4-bromophenoxy)benzyl]piperidine-2,6-dione] is 3.5-fold lower in IC50: 70 nM for the first, 20 nM for the second. The second is the more potent here.

Going from O=C(SC1CCC(=O)N(Cc2ccc(Oc3ccccc3)cc2)C1=O)c1ccccc1 (stereo not drawn) [Example 44, 3-Benzoylthio-1-(4-phenoxybenzyl)piperidine-2,6-dione] to O=C(SC1CCCN(Cc2ccc(Oc3ccccc3)cc2)C1=O)c1ccccc1 (stereo not drawn) [Example 47, 3-Benzoylthio-1-(4-phenoxybenzyl)piperidin-2-one], the IC50 rises from 10 nM to 4000 nM (400-fold). The first is the more potent here.

Compared with CC(=O)SC1CCCN(Cc2ccc(Oc3ccccc3)cc2)C1=O (stereo not drawn) [Example 46, 3-Acetylthio-1-(4-phenoxybenzyl)piperidin-2-one], O=C1C(S)CCCN1Cc1ccc(Oc2ccccc2)cc1 (stereo not drawn) [Example 48, 3-Mercapto-1-(4-phenoxybenzyl)piperidin-2-one] is lower in IC50: greater than 10000 nM for the first, 5000 nM for the second.
